Assay: Human HepG2 cell viability assay in 384 well format
Assay type: toxicity, cell-based
Parameters: dose 125 nL, time 70.5 hour; cytotoxicity at 70.5 h: concentration not given beside the values
Details: HepG2 cells, read-out: Inhibition

Going from `CCN(CCNC(=O)C1CCCN(C(C)=O)C1)c1ccccc1C` (stereo not drawn) to `CCCn1nccc1C(=O)N1CCCC(C(=O)CCc2ccccc2)C1` (stereo not drawn), the cytotoxicity at 70.5 h rises from -10.5% to -2.61%.

Compared with `OC(CN(Cc1ccccc1)Cc1ccon1)c1ccco1` (stereo not drawn), `Cn1cc(C(NCCc2ccccn2)c2cccc(F)c2)cn1` (stereo not drawn) is higher in cytotoxicity at 70.5 h: -7.07% for the first, -5.84% for the second.

Going from `CC(=O)NCCNC(=O)CN1CCOC(Cn2cccn2)C1` (stereo not drawn) to `c1cnn(CCCO[C@@H]2CC[C@H]3[C@H]2OCCN3CC2CC2)c1`, the cytotoxicity at 70.5 h falls from 0.989% to -7.2%.

First: Cc1cc(Nc2ccccn2)nc(C2CCCN(CCO)C2)n1 (stereo not drawn)
Second: Cc1ccnc(C2CCN(c3ccnc(C)n3)C2)n1 (stereo not drawn)
The cytotoxicity at 70.5 h of the first is higher: -8.92% for the first, -12.3% for the second.

First: Cc1cc(C)nc(NCCSc2cnn[nH]2)n1
Second: Cc1cc(C)nc(N2CCC(Cn3cc(C(N)=O)cn3)CC2)n1
The cytotoxicity at 70.5 h of the first is higher: -2% for the first, -7.04% for the second.

Going from `O=C(NCCCF)N1CCC(n2ccc(C(F)(F)F)n2)CC1` to `CS(=O)(=O)NCC1CCCCN1C(=O)c1cccc(C(F)(F)F)c1` (stereo not drawn), the cytotoxicity at 70.5 h rises from -104% to -0.142%.

First: COCc1c(Br)cccc1NC(=O)N(C)CCO
Second: Cc1csc(NC(=O)CN(C)CCOc2cccc(F)c2)n1
The cytotoxicity at 70.5 h of the first is lower: -12.1% for the first, 15.2% for the second.

Going from `CN(CC(=O)Nc1cc(C(F)(F)F)c[nH]c1=O)Cc1ccccc1` to `CCC(=O)NC1CCCN(c2cncc(OCc3ccccc3)n2)C1` (stereo not drawn), the cytotoxicity at 70.5 h rises from -11.2% to -0.318%.

Compared with `Cc1cc(C)nc(CN(C)C(=O)c2ccccc2C2CCNC2)c1` (stereo not drawn), `Cc1ccccc1CNc1nc(O)cc(C2CC(=O)N(C)C2)n1` (stereo not drawn) is lower in cytotoxicity at 70.5 h: -5.21% for the first, -7.17% for the second.

Going from `Cc1cc(S(=O)(=O)N2CCCN3CCCC3C2)ccc1F` (stereo not drawn) to `CSCc1cccc(S(=O)(=O)N2CCCCC2)c1`, the cytotoxicity at 70.5 h rises from -9.81% to -6.14%.

Compared with `CCc1nc2n(n1)CC(NCc1cnc(-c3ccccc3)nc1)CC2` (stereo not drawn), `CC(C)c1cc(C(=O)N2CCCC2c2nc(-c3ccccc3)no2)[nH]n1` (stereo not drawn) is lower in cytotoxicity at 70.5 h: 29.3% for the first, -0.676% for the second.

Compared with `Cc1ccc(CN(C)C(=O)CN2CCCC2c2cnn(C)c2)o1` (stereo not drawn), `CN(C)CCn1c2c(ccc1=O)CC(NCc1cnn(C)c1)CC2` (stereo not drawn) is lower in cytotoxicity at 70.5 h: 16.6% for the first, -8.72% for the second.

First: CN(C)C(=O)C1(CCCc2ccncc2)CCCN1 (stereo not drawn)
Second: CN(C)C(=O)c1cnc2n1CCN(Cc1cccnc1)C2
The cytotoxicity at 70.5 h of the first is higher: 9.48% for the first, 4.75% for the second.

Compared with `CCc1ncc(C(=O)N(C)C2Cc3ccccc3C2)cn1`, `COC(=O)C(NC(=O)c1ccc(N(C)C)nc1)c1ccccc1` (stereo not drawn) is lower in cytotoxicity at 70.5 h: 2.28% for the first, -8.4% for the second.

Going from `CCn1c(CN(C)C)nnc1C1CCN(Cc2ccc(C)s2)CC1` to `CCCc1cc(NC2CCN(Cc3ccccn3)CC2)n2nccc2n1`, the cytotoxicity at 70.5 h falls from -2.28% to -4.87%.

Compared with `Cc1nc(C)n(CC2CCCN2Cc2cscn2)n1` (stereo not drawn), `c1ncn(CC2CCCCN2Cc2csc(C3CCCC3)n2)n1` (stereo not drawn) is higher in cytotoxicity at 70.5 h: -9.32% for the first, 33.9% for the second.

Compared with `CC(C)OCCCNC(=O)CN1CCC(N2CCN(C)C2=O)CC1`, `CCOc1ccc(NC(=O)CN2CCN(c3nccn3C)CC2)cc1` is higher in cytotoxicity at 70.5 h: -18.5% for the first, -2.94% for the second.

Compared with `Cn1ccnc1CN1CCC2(CC1)CC(Oc1cccnc1)C2`, `COc1nccnc1N1CCC2(CC1)C(=O)N(C)c1ccccc12` is lower in cytotoxicity at 70.5 h: 1.72% for the first, -2.17% for the second.

Going from `Cc1cncc(C(=O)N2CCOc3nc(C)ccc32)c1` to `Cc1noc(NC(=O)c2ccc(C)c(F)c2)n1`, the cytotoxicity at 70.5 h rises from -7.26% to 41%.

Going from `CC(C)(C)c1cn2nc(N3CCCC(Cn4cncn4)C3)sc2n1` (stereo not drawn) to `CCc1cc(N2CCCC(c3noc(CC)n3)C2)ncn1` (stereo not drawn), the cytotoxicity at 70.5 h rises from -9.57% to -5.13%.

First: CC(C)NC(=O)CCNC(=O)c1c(Br)c2ccccc2n1C
Second: CCO[C@@H]1CC[C@H]2[C@H]1OCCN2C(=O)c1nn(C)c2ccccc12
The cytotoxicity at 70.5 h of the first is lower: -0.338% for the first, 2.67% for the second.

Going from `CC(C)N(C)Cc1n[nH]c2c1CCN(C(=O)c1ccc[nH]1)C2` to `CC(C)Nc1nc2c(c(NC3CC3)n1)CN(C(=O)c1ccnnc1)CC2`, the cytotoxicity at 70.5 h rises from 21% to 32.6%.

Going from `O=C(NCCCN1CCOCC1)c1ccnc(OCc2ccccc2)c1` to `O=C(NCCn1ccnc1)c1cc(F)cc(Br)c1`, the cytotoxicity at 70.5 h falls from -1.25% to -8.01%.

Compared with `Cc1cccnc1CNCC1(O)CCCN(CC(C)(C)C)C1=O` (stereo not drawn), `Cc1nn(C)c2c(=O)n(CC(=O)NCC3CCCO3)ccc12` (stereo not drawn) is lower in cytotoxicity at 70.5 h: -4.51% for the first, -4.99% for the second.

First: Cc1nc2ccccn2c1CC(=O)N[C@@H]1CC[C@@H](N2CCCC2)[C@@H]1O
Second: CN1CCN(C(=O)NC2CC2)Cc2cccnc21
The cytotoxicity at 70.5 h of the first is lower: -5.16% for the first, 0.459% for the second.

`N#Cc1cc2cc(Cl)cnc2nc1O` and `CC(C)(C)c1ncc2c(n1)CN(c1cc(NCCO)nc(N)n1)C2` are the same in cytotoxicity at 70.5 h: -12% for the first, -12% for the second.

Going from `Cc1noc(C)c1CN1CC2(CCCCN2c2cncnc2)CC1=O` (stereo not drawn) to `Cc1cc(CN2CCC(CNS(=O)(=O)c3c(C)noc3C)CC2)c(C)o1`, the cytotoxicity at 70.5 h rises from -3.04% to 2.34%.

First: Cc1c(F)cc(C(=O)O)cc1S(=O)(=O)Nc1cccc(C(F)F)c1
Second: Cc1cc(F)ccc1S(=O)(=O)NCc1[nH]ncc1Br
The cytotoxicity at 70.5 h of the first is lower: -10.3% for the first, -7.73% for the second.

First: CCOc1ccc(CNC(C)c2cccc(S(=O)(=O)NC)c2)cc1 (stereo not drawn)
Second: CNC(=O)c1ccc(NC(=O)NC(C)c2cc(C)oc2C)cc1 (stereo not drawn)
The cytotoxicity at 70.5 h of the first is lower: -9.92% for the first, -8.2% for the second.

Compared with `CCOCC1CN(CCOc2ccc(Cl)cc2)Cc2c1cnn2C` (stereo not drawn), `COCC1CN(C(=O)c2cccn2C)Cc2c1cnn2CC1CC1` (stereo not drawn) is lower in cytotoxicity at 70.5 h: 2.89% for the first, -1.46% for the second.

First: CN1CCCC(N(C)C(=O)c2ccc(NC(=O)c3cc[nH]n3)cc2)C1 (stereo not drawn)
Second: Cn1cc(C(=O)Nc2cccc(Oc3ccncc3)c2)ccc1=O
The cytotoxicity at 70.5 h of the first is higher: -0.159% for the first, -4.83% for the second.

Compared with `N#Cc1cn(C2CC2)c(=O)n(CC(O)c2ccc(OC(F)F)cc2)c1=O` (stereo not drawn), `NC(=O)C(NC1CCN(CC2CCCCC2)CC1)c1ccc(F)cc1` (stereo not drawn) is higher in cytotoxicity at 70.5 h: -17.5% for the first, -9.96% for the second.

Compared with `CC(C)c1nn(C)c(N2CCOCC2)c1CNC(C)c1cccs1` (stereo not drawn), `CC1COCCN1Cc1nc(-c2cccs2)no1` (stereo not drawn) is lower in cytotoxicity at 70.5 h: -1.47% for the first, -31% for the second.

Compared with `CCN(CC)C(=O)CCc1c(C)nc2cc(O)nn2c1C`, `CCc1nc(C)c(CNC(=O)CCCN2CCCCC2)s1` is higher in cytotoxicity at 70.5 h: -3.01% for the first, -1.08% for the second.

First: CCN1CC2(CC1=O)CN(Cc1ccco1)CCN(C(=O)C(C)C)C2 (stereo not drawn)
Second: CO[C@@H]1CN(c2ccccc2)S(=O)(=O)[C@@]12CCN(C(=O)N(C)C)C2
The cytotoxicity at 70.5 h of the first is higher: 7.56% for the first, -5.12% for the second.

Compared with `CN(C)C(=O)NC1COC2(CCN(Cc3ccc(Cl)c(F)c3)CC2)C1` (stereo not drawn), `CN1CCCN(C(C(=O)O)c2ccc3c(c2)OCO3)CC1` (stereo not drawn) is higher in cytotoxicity at 70.5 h: -8.77% for the first, 0.827% for the second.

Compared with `COCC1CN(c2ccc3c(Cl)ccnc3c2F)CCO1` (stereo not drawn), `O=C(c1cc(-c2ccco2)nc2c(Cl)cccc12)N1CC[C@H]2CNC[C@H]21` is lower in cytotoxicity at 70.5 h: 20.2% for the first, 19.8% for the second.

Going from `CC(C(=O)NCCN1CCCCCC1)n1cncn1` (stereo not drawn) to `CNc1nc(C(=O)N2CCCn3nc(C(=O)N4CCCC4)cc3C2)cs1`, the cytotoxicity at 70.5 h falls from -0.492% to -11.2%.

First: O=C(NCCc1noc(-c2ccccn2)n1)NCC1CCCC1
Second: COCC(=O)N1CCC(Cc2nccnc2-c2c(C)n[nH]c2C)C1 (stereo not drawn)
The cytotoxicity at 70.5 h of the first is lower: -4.99% for the first, 12.4% for the second.

Going from `N[C@H]1CN(C(=O)CCCc2ccc(F)cc2)C[C@@H]1C1CC1` to `CSc1nc(C)cc(N2CCC(c3ncc[nH]3)CC2)n1`, the cytotoxicity at 70.5 h rises from -6.92% to -2.3%.

First: C=C(C)CN(CC)Cc1nc(C(C)(C)C)no1
Second: Cc1nn(CC(C)C)c(C)c1CC(=O)N1CCCC(NS(C)(=O)=O)C1 (stereo not drawn)
The cytotoxicity at 70.5 h of the first is higher: 10.8% for the first, -3.7% for the second.

`Cc1cc(-c2cnc(N3CCNC(=O)C3)nc2-c2ccoc2C)on1` gave a cytotoxicity at 70.5 h of -6.66%.

— ChEMBL document CHEMBL3507680, “University of Dundee, Gates Library screen for HepG2 cell viability”
